Here are results for three molecules from patent US11566168B1, “Biocide blend for treating wellbores” (Halliburton Energy Services, Inc., priority 2021, dated 2023).

Series [1] relates to sulfate reducing bacteria (SRB). In words: Elevated temperature study of biocides, kill testing of SRB. The class given is cell-based, indigenous sulfate reducing bacteria. The conditions noted are these: for biocidal effectiveness against SRB (FIG. 1): biocide-dosed water at 93° C. for 1 week, then 5 days at 32° C. with bacteria. The procedure:
(§1) To facilitate a better understanding of the various embodiments, the following examples are given. […] Kill testing was performed at 32° C. (89.6° F.) at various contact times as follows. Bacterial populations were augmented prior to testing by culturing indigenous acid producing bacteria (APB) and sulfate reducing bacteria (SRB) in sample waters before starting kill studies. Prior to testing, cultures of APB and SRB from water samples were grown in culture medium. APB were grown in anaerobic phenol red dextrose medium (PRD). SRB were grown in American Petroleum Institute (API) medium without iron. The total dissolved solids (TDS) of SRB and APB media were selected to simulate wellbore fluids for some of the testing. Immediately preceding biocide testing, cultures were harvested by centrifugation. Cell pellets from mature bacteria were resuspended in sample water. The sample water, augmented with bacteria, was dispensed into 60 mL glass bottles and the appropriate amount of biocide was added. At the stated contact time of either 4 hours or 24 hours, biocide samples were taken for quantification. A standard serial dilution method into culture media was used to test biocide efficacy. Controls were serial diluted to theoretical extinction, while biocide-dosed samples were carried through 6 ten-fold dilutions as represented on the Y-axis of the figures. APB were quantitated by serial dilution into PRD medium. SRB were quantified by serial dilution into modified Postgate's medium B (MBP). Culture media were incubated at 32° C. (89.6° F.) and checked periodically. A change from red to yellow indicated a positive APB bottle. Formation of a black precipitate indicated a positive SRB bottle.
(§2) Elevated temperature studies of the biocides as shown in FIGS. 1 and 2 were conducted by adding 2 times the final biocide test concentration to 100 mL of sample water. The biocide-dosed sample was placed at 93° C. (199.4° F.) for 1 week or 2 weeks, FIG. 1 and FIG. 2, respectively. Following exposure to the elevated temperature, the heat-exposed biocide-dosed material was combined with an equal amount of sample water augmented with APB or SRB bacteria. The sample was then incubated for 5 days at 32° C. (89.6° F.). Following incubation, the sample material was serial diluted into PRD and MPB media for APB and SRB quantitation as discussed above. The biocides for FIGS. 1 and 2 are formaldehyde-releasing biocides. Tris(hydroxymethyl)nitromethane (“THNM”) and 4,4-dimethyloxazolidine (“DMO”) were obtained from DuPont®. Triazine was 1,3,5-triazine that is widely available commercially. Paraformaldehyde and […] (ratio 3:2) (“MBO”) was obtained from Vink chemicals. The formaldehyde-releasing biocides were in a concentration of 100, 150, 500, or 1,000 parts per million (“ppm”).

In series [2] the test system is acid producing bacteria (APB). Kind of series: Elevated temperature study of biocides, kill testing of APB. It is filed as cell-based, indigenous acid producing bacteria. The conditions noted are these: for biocidal effectiveness against APB (FIG. 1): biocide-dosed water at 93° C. for 1 week, then 5 days at 32° C. with bacteria. The procedure: as §1, §2
A short description of series [3]: Properties that a biocide or blend possesses (Table 1). The source says:
Some of the desirable properties can include maintaining biocidal activity in fluids having a high salinity or a high concentration of total dissolved solids, thermal stability, maintaining biocidal activity in the presence of ammonia or primary amines, quick kill, maintaining biocidal activity for extended periods of time—also known as persistence, and no interaction between the biocide and other additives having a negative charge (anions) within a treatment fluid.
The second property can be different. […] It is to be understood that unlike a triazine compound, glutaraldehyde is not a formaldehyde-releasing biocide.

[4] abbreviates: at comparable or lower concentrations, 93° C. for 1 week.
Where [5] appears, read: triazine at 100 ppm, 93° C. for 1 week.

As to `CC1(C)COCN1` [DMO, 4,4-dimethyloxazolidine, reference compound], in series [1], the “biocidal effectiveness against SRB (FIG. 1)” value is “not SRB”. Besides, the “biocidal effectiveness against APB (FIG. 1)” value in series [2] is recorded as “effective”.

`O=CCCCC=O` [Glutaraldehyde, glutaraldehyde, reference compound]: in series [3], the Activity in ammonia entry is recorded as “No”, the High salinity activity result is reported as “Yes”, the “No interaction with anions” value is listed as “Yes” and the Quick kill entry is “Yes”. Further, the Thermal stability entry in series [3] is reported as “No”.

Turning to 1,3,5-triazine, the “performance compared with the other formaldehyde-releasing biocides, SRB (FIG. 2)” value in series [1] (150 ppm, 93° C. for 2 weeks) is “performed better”. The “effectiveness compared with the other formaldehyde-releasing biocides, SRB (FIG. 1)” value in series [1] (setting [4]) is on record as “as effective or more effective”. For the same molecule, the “biocidal effectiveness against SRB (FIG. 1)” value in series [1] is “very effective”. Also, the “effectiveness compared with MBO, SRB (FIG. 1)” value in series [1] (setting [5]) was “as effective as MBO at 1,000 ppm”. In addition, the “performance compared with the other formaldehyde-releasing biocides, APB (FIG. 2)” value in series [2] (150 ppm, 93° C. for 2 weeks) is given as “performed better”. Further, the “effectiveness compared with the other formaldehyde-releasing biocides, APB (FIG. 1)” value in series [2] (setting [4]) was “as effective or more effective”. In addition, the “biocidal effectiveness against APB (FIG. 1)” value in series [2] is on record as “effective”. In addition, in series [2] (setting [5]), the “effectiveness compared with MBO, APB (FIG. 1)” value is “as effective as MBO at 1,000 ppm”. Further, in series [3], the Activity in ammonia result is listed as “Yes”, the High salinity activity entry is “Yes”, the “No interaction with anions” value is given as “Yes” and the Quick kill result is reported as “No”. In series [3], the Thermal stability entry is recorded as “Yes”.
